# Measurements as given in US20110236397A1, “LIMITED PROTEOLYSIS OF CD2AP AND PROGRESSION OF RENAL DISEASE” (University of Miami, priority 2008, published 2011).
# Residues, ends and D or L forms follow the SMILES beside them. *: point of attachment. Cbz = O=C(OCc1ccccc1)*; CH2F = FC*
# Legend:
# [1] = tested on: rat glomerulonephritis model; conditions: cited from earlier work
# [2] = tested on: podocytes; conditions: in vivo; cited from earlier work
# [3] = target: cathepsin B (Homo sapiens, UniProt P07858); conditions: cited from earlier work
# [4] = tested on: cathepsin L; assay: Cellular CatL cleavage assay: CD2AP-FLAG HEK293 cells co-transfected with cathepsin L constructs; assay type: cell-based; conditions: for cleavage of CD2AP into p32 by WT cathepsin L: WT cathepsin L (pre-pro and short form), co-incubation with inhibitor; for cleavage of CD2AP into p32 by cytosolic (short, CatL M1) cathepsin L: cytosolic cathepsin L alone, inhibitor added
# Text: FIG. 2A is a scan of a photograph showing a silver stained gel of FLAG-CD2AP after cleavage with CatL at various pH. FIG. 2B is a scan of a photograph showing an immunoblot of cleaved CD2AP fragments that are tagged with a N-terminal GFP. GFP-CD2AP is stable in the absence of CatL enzyme. Cleavage of CD2AP at pH 4.5 and 5.5 leads to complete digestion of the protein. At pH 7.0, CD2AP is cleaved into a stable 55 kD fragment (▪) as detected with an anti-GFP antibody. The same fragment is detected with the CD2AP antiserum which is raised against the SH3 domains of CD2AP (anti-N-CD2AP). The CD2AP antiserum also detects a weak band corresponding to a 44 kD fragment (▴, detected by the affinity of the antibody to the C-terminal SH3, anti-C-CD2AP). FIG. 2C is a schematic representation showing the match of cleavage fragments with predicted CatL cleavage site QPLGS. FIG. 2D is a blot showing that CatL cleaves CD2AP-FLAG yielding a 44 kD (▴) and a 32 kD ([…]) fragment. FIG. 2E is a schematic representation showing that both fragments have corresponding predictions in the amino acid sequence of CD2AP (QPLGS and LSAAE). FIG. 2F is a blot showing results from a cellular CatL cleavage assay: Wild type (WT) CatL (pre-pro CatL and short form) cleaves CD2AP in HEK293 cells. […] Short CatL (CatL M1) is sufficient to cleave CD2AP yielding a 32 kD fragment ([…]). This cleavage is abrogated by a specific CatL inhibitor. FIG. 2G is a blot showing that deletion of the CatL cleavage site LSAAE protects CD2AP from limited proteolysis into the 32 kD fragment ([…]).
# Cell culture and transient transfection. Mouse podocytes were cultured as described previously (Mundel, P. et al. Exp. Cell Res. 236, 248-258 (1997)). HEK293 cells were maintained and transfected as previously reported (Reiser, J. et al. Nat. Genet. 37, 739-744 (2005)).
# Next, it was investigated whether cytosolic cathepsin L in cells is sufficient to process CD2AP. CD2AP-FLAG expressing HEK293 cells were co-transfected with WT cathepsin L […] which generates cytosolic and lysosomal cathepsin L protein and a cathepsin L construct that contains a deletion of the first AUG site and thus encodes selectively for the cytosolic form of cathepsin L. The experiments were performed in the presence or absence of a specific cathepsin L inhibitor (FIG. 2F). WT cathepsin L led to cleavage of CD2AP yielding p32. […] More importantly, transfection of cytosolic cathepsin L alone was sufficient to cleave CD2AP resulting in the production of p32 (FIG. 2F). […] The stable p32 fragment was identified in the cleavage assays at neutral pH (FIG. 2A). In addition, this fragment was generated in HEK 293 cells using cytosolic cathepsin L. Therefore, this fragment was regarded as an end-product generated through cytosolic cathepsin L cleavage. […]
# [5] = tested on: cathepsin L; assay: Cathepsin L activity assay in glomerular extracts (fluorogenic substrate CV-(FR)2); assay type: biochemical, mouse; conditions: LPS treated mice, co-incubation
# Method: Isolation and processing of glomeruli. Glomeruli were isolated from kidneys of 8-12 weeks old LPS- and PBS-treated (control) mice using a sequential sieve technique with mesh sizes of 180, 100, and 71 μm. The fraction collected from the 71-μm sieve was maintained for soup/pellet fractionation. Isolated glomeruli were homogenized in buffer containing 20 mM HEPES pH 7.5, 100 mM NaCl, 1 mM MgCl2, 1 mM PMSF, protease inhibitors (Roche), calpain inhibitor (Calbiochem), and E-64d (Calbiochem) using Dounce homogenizer. Subsequently, cytosol was centrifuged for 10 min at 4,600 g. Proteins were solubilized by 1% Triton X-100, 1 hour at 4° C., before it was spun at 70,000 g for 1 hour.
# Cathepsin L activity assay. Subcellular sites of cathepsin L and cathepsin B activity in glomerular extracts were visualized by a fluorogenic substrate, CV—(FR)2, which emits light upon cleavage by cathepsin L or cathepsin B (Biomol).
# To test the significance of this prediction, glomeruli were isolated from control mice and animals that were injected with low-dose lipopolysaccharide (LPS), a treatment causing high levels of cytosolic cathepsin L in podocytes. The tissue samples were further processed to obtain cytosolic and membrane-bound glomerular extracts (FIG. 1A). […]
# [6] = listed as specific CatL inhibitor
compound,measurement,setting,value
CC(C)C[C@H](NC(=O)[C@H]1O[C@@H]1C(=O)O)C(=O)NCCCCN=C(N)N [E64],experimental proteinuria,[1],can reduce experimental proteinuria
same,protection against proteinuria,[2],safeguard against proteinuria
COC(=O)[C@@H]1CC2=CC(=O)CC[C@]2(C)[C@@]23O[C@@H]2C[C@@]2(C)[C@@H](CC[C@@]24CCC(=O)O4)[C@H]13 [Epleronone],protection against proteinuria,[2],safeguard against proteinuria
CCN(CC)CCCC(C)Nc1nc(C)cc(Nc2ccc3nc(C)cc(N)c3c2)n1 (centres unmarked) [NSC23766],protection against proteinuria,[2],safeguard against proteinuria
O=C(NC(Cc1ccccc1)C(=O)NC(Cc1ccccc1)C(=O)CF)OCc1ccccc1 (stereo not drawn) [Z-FF-FMK] (Cbz-Phe-Phe-CH2F; configuration not given here),inhibition of cathepsin B,[3],does not inhibit cathepsin B
same,cleavage of CD2AP into p32 by WT cathepsin L,[4]; [6],can be prevented
same,cleavage of CD2AP into p32 by WT cathepsin L,[4]; listed as specific cathepsin L inhibitor,could be prevented
same,"cleavage of CD2AP into p32 by cytosolic (short, CatL M1) cathepsin L",[4]; listed as cathepsin L inhibitor,could be blocked
same,"cleavage of CD2AP into p32 by cytosolic (short, CatL M1) cathepsin L",[4]; [6],abrogated
same,inhibition of cathepsin L activity in cytosolic extract of glomeruli,[5],could be inhibited
CC(C)[C@@H]1NC(=O)[C@@H](Cc2ccccc2)NC(=O)[C@H](CC(=O)O)NC(=O)CNC(=O)[C@H](CCCN=C(N)N)NC1=O [cycloRGDfV],protection against proteinuria,[2],safeguard against proteinuria
